# Key:
# [1] = target: T1, Amine oxidase [flavin-containing] A (Homo sapiens, UniProt P21397); experiment: Inhibition of recombinant human MAO-A expressed in baculovirus infected BTI insect cells preincubated for 30 mins followed by addition of p-tyramine as substrate measured over 45 mins by Amplex Red MAO assay
# T1 sequence (P21397 whole entry): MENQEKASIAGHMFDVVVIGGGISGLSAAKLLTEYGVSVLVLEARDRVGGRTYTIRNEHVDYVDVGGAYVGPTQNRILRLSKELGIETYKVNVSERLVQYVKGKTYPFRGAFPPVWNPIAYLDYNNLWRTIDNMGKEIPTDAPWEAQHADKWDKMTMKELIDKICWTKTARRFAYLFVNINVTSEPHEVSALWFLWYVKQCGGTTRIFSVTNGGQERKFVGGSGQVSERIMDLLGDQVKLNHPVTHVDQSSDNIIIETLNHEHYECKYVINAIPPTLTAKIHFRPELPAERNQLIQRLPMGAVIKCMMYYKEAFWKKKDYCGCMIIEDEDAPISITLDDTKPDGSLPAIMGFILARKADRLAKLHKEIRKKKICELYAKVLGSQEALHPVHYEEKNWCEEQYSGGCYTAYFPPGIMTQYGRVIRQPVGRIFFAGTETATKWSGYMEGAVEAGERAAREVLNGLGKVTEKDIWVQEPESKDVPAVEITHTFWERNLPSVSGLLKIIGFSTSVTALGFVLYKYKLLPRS
# Adenosine receptor A1 [2] = target: T2, Adenosine receptor A1 (Rattus norvegicus, UniProt P25099); experiment: Displacement of [3H]CCPA from A1 receptor in rat brain cortex membranes by liquid scintillation counting method; type: cell membranes
# T2 sequence (P25099 whole entry): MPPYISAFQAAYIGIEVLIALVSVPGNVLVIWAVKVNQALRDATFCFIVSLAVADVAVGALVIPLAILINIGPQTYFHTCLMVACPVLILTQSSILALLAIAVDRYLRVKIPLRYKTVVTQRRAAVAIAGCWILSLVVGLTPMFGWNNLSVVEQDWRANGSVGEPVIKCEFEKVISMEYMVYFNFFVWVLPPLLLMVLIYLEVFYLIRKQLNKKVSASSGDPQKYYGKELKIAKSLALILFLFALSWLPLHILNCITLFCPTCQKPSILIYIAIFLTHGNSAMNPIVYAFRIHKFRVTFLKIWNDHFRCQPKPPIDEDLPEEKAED
# Adenosine receptor A3 = target: T3, Adenosine receptor A3 (Homo sapiens, UniProt P0DMS8); experiment: Displacement of [3H]PSB-11 from human A3 receptor expressed in CHO cell membrane by liquid scintillation counting method relative to control; type: cell membranes
# T3 sequence (P0DMS8 whole entry): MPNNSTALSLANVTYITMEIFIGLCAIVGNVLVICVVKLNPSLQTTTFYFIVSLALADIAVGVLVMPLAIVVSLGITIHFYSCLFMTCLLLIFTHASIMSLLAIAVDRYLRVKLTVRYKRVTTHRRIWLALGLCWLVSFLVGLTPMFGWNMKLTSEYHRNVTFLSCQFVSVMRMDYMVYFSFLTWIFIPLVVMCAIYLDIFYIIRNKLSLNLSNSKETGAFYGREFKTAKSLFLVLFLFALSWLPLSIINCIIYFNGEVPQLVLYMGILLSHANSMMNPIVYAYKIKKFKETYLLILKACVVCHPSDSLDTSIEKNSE
# [3] = target: T4, Adenosine receptor A2b (Homo sapiens) (UniProt P29275); experiment: Displacement of [3H]PSB-603 from human A2B receptor expressed in CHO cell membrane at 0.3 uM relative to control; type: cell membranes
# T4 sequence (whole entry): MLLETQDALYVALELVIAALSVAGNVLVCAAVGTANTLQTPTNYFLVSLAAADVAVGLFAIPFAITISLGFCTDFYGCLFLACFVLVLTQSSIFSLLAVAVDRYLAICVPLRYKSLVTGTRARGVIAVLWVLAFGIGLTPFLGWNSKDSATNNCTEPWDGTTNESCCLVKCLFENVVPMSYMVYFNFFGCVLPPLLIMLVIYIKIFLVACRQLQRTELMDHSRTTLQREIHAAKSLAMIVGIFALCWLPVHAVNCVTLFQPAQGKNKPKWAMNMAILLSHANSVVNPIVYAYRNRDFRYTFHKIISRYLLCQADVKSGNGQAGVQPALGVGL
# Adenosine receptor A2a = Adenosine receptor A2a (Rattus norvegicus, UniProt P30543); experiment: Displacement of [3H]MSX from A2A receptor in rat brain striatum membranes measured after 30 mins by liquid scintillation counting method; type: cell membranes
# [4] = target: T1, Amine oxidase [flavin-containing] A; experiment: Inhibition of recombinant human MAO-A expressed in baculovirus infected BTI insect cells at 10 uM preincubated for 30 mins followed by addition of p-tyramine as substrate measured over 45 mins by Amplex Red MAO assay relative to control; conditions: 0.75 h
# Adenosine receptor A2b = target: T5, Adenosine receptor A2b (Homo sapiens, UniProt P29275); experiment: Displacement of [3H]PSB-603 from human A2B receptor expressed in CHO cell membrane; type: cell membranes
# T5 sequence (P29275 whole entry): T4 sequence (whole entry)
# [5] = target: T6, Amine oxidase [flavin-containing] B (Homo sapiens, UniProt P27338); experiment: Inhibition of recombinant human MAO-B expressed in baculovirus infected BTI insect cells preincubated for 30 mins followed by addition of p-tyramine as substrate measured over 45 mins by Amplex Red MAO assay
# T6 sequence (P27338 whole entry): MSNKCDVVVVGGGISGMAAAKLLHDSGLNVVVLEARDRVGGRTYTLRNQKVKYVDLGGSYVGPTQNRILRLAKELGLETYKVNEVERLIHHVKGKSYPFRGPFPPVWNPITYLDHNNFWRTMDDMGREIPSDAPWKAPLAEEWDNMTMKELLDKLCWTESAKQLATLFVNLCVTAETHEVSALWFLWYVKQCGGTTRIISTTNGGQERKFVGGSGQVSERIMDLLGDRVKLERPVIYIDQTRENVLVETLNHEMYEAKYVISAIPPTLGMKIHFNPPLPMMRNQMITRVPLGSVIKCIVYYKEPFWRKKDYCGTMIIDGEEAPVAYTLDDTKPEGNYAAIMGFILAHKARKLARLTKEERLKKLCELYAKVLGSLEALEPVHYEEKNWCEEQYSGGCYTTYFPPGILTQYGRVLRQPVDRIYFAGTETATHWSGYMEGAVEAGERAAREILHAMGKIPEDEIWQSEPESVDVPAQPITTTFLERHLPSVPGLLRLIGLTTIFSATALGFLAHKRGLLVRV
# [6] = target: T6, Amine oxidase [flavin-containing] B; experiment: Inhibition of recombinant human MAO-B expressed in baculovirus infected BTI insect cells at 10 uM preincubated for 30 mins followed by addition of p-tyramine as substrate measured over 45 mins by Amplex Red MAO assay relative to control; conditions: 0.75 h
# [7] = target: T7, Adenosine receptor A1 (Rattus norvegicus) (UniProt P25099); experiment: Displacement of [3H]CCPA from A1 receptor in rat brain cortex membranes at 1.5 uM by liquid scintillation counting method; type: cell membranes
# T7 sequence (whole entry): T2 sequence (P25099 whole entry)
# [8] = target: T8, Adenosine receptor A3 (Homo sapiens) (UniProt P0DMS8); experiment: Displacement of [3H]PSB-11 from human A3 receptor expressed in CHO cell membrane at 10 uM by liquid scintillation counting method relative to control relative to control; type: cell membranes
# T8 sequence (whole entry): T3 sequence (P0DMS8 whole entry)
# [9] = Thermodynamic solubility of the compound at pH 4; type: physicochemical; conditions: buffer, read-out: Therm_solubility
# [10] = Thermodynamic solubility of the compound at pH 7.4; type: physicochemical; conditions: buffer, read-out: Therm_solubility
# [11] = target: T4, Adenosine receptor A2b (Homo sapiens); experiment: Displacement of [3H]PSB-603 from human A2B receptor expressed in CHO cell membrane at 1 uM relative to control; type: cell membranes
# [12] = target: Adenosine receptor A2a (Rattus norvegicus) (UniProt P30543); experiment: Displacement of [3H]MSX from A2A receptor in rat brain striatum membranes at 1 uM measured after 30 mins by liquid scintillation counting method relative to control; type: cell membranes
# [13] = Thermodynamic solubility of the compound at pH 1; type: physicochemical; conditions: buffer, read-out: Therm_solubility
# Adenosine receptor A1 [14] = target: T9, Adenosine receptor A1 (Homo sapiens, UniProt P30542); experiment: Displacement of [3H]CCPA from human A1 receptor expressed in CHO cell membrane by liquid scintillation counting method; type: cell membranes
# T9 sequence (P30542 whole entry): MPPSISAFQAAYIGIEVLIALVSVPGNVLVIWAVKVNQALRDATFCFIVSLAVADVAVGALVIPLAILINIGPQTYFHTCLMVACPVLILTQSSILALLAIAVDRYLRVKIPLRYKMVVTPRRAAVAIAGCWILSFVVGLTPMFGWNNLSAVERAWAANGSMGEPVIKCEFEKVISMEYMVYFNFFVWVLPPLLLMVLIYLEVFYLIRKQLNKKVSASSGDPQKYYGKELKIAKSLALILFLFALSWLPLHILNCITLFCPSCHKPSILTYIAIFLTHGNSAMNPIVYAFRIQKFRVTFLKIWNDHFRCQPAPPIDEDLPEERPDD
# Chain of Adenosine receptor A2a (P30543 whole entry): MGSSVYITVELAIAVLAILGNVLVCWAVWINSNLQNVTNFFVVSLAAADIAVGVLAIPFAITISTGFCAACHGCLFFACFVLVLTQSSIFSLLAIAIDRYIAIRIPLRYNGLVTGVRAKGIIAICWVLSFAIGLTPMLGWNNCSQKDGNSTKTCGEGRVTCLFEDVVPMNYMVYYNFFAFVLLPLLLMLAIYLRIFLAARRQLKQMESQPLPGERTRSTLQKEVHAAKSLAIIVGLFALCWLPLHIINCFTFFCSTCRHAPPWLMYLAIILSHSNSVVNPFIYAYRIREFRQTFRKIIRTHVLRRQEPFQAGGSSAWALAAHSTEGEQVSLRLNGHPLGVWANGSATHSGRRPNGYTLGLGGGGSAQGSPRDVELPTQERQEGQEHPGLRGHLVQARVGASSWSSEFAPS
# Chain of Adenosine receptor A2a (Rattus norvegicus) (P30543 whole entry): as above
IC50 [1],Ki (Adenosine receptor A1 [2]),Ki (Adenosine receptor A3),Activity [3],Ki (Adenosine receptor A2a),inhibition at 10 µM [4],Ki (Adenosine receptor A2b),IC50 [5],inhibition at 10 µM [6],Activity [7],Activity [8],solubility thermodynamic [9],solubility thermodynamic [10],Activity [11],Activity [12],solubility thermodynamic [13],Ki (Adenosine receptor A1 [14]),Structure (SMILES)
> 10 µM,> 1500 nM,> 10 µM,17%,1590 nM,5%,> 300 nM,> 10 µM,21%,15%,24%,–,–,–,–,–,–,Cn1c(=O)c2c(nc3n2CCN(CCc2cccs2)C3)n(C)c1=O
> 10 µM,> 1500 nM,> 10 µM,8%,1500 nM,12%,> 300 nM,> 10 µM,35%,6%,16%,–,–,–,–,–,–,Cn1c(=O)c2c(nc3n2CCN(CCc2cccc(F)c2)C3)n(C)c1=O
> 10 µM,> 1500 nM,> 10 µM,–,> 1000 nM,14%,> 1000 nM,> 10 µM,19%,7%,37%,1500 µg/mL,1200 µg/mL,8%,8%,> 1500 µg/mL,–,Cn1c(=O)c2c(nc3n2CCN(CCn2cccc2)C3)n(C)c1=O
–,138 nM,> 10 µM,–,2910 nM,–,> 1000 nM,0.425 µM,–,–,25%,–,–,26%,–,–,553 nM,Cn1c(=O)c2c(nc3n2CCN(CCc2ccc(Cl)cc2C(F)(F)F)C3)n(C)c1=O
–,> 1500 nM,> 10 µM,2%,5630 nM,–,> 300 nM,–,65%,24%,40%,–,–,–,–,–,–,Cn1c(=O)c2c(nc3n2CCN(CCc2ccccc2F)C3)n(C)c1=O

# Further lines, the compound ahead of its results:
Structure (SMILES),IC50 [1],Ki (Adenosine receptor A1 [2]),Ki (Adenosine receptor A3),Activity [3],Ki (Adenosine receptor A2a),inhibition at 10 µM [4],Ki (Adenosine receptor A2b),IC50 [5],inhibition at 10 µM [6],Activity [7],Activity [8],solubility thermodynamic [9],solubility thermodynamic [10],Activity [11],Activity [12],solubility thermodynamic [13],Ki (Adenosine receptor A1 [14])
Cn1c(=O)c2c(nc3n2CCN([C@H]2CCc4ccccc42)C3)n(C)c1=O,–,> 1500 nM,> 10 µM,11%,2480 nM,–,> 300 nM,> 10 µM,22%,29%,33%,–,–,–,–,–,–
Cn1c(=O)c2c(nc3n2CCN(CCCc2ccccc2)C3)n(C)c1=O,> 10 µM,> 1500 nM,> 10 µM,5%,1840 nM,9%,> 300 nM,> 10 µM,14%,12%,20%,–,80 µg/mL,–,–,–,–
Cn1c(=O)c2c(nc3n2CCN(C2CCc4ccccc42)C3)n(C)c1=O (racemic),–,> 1500 nM,> 10 µM,10%,4210 nM,–,> 300 nM,2.13 µM,–,32%,45%,1 µg/mL,< 0.5 µg/mL,–,–,1000 µg/mL,–
Cn1c(=O)c2c(nc3n2CCN(CCc2ccc(Cl)cc2Cl)C3)n(C)c1=O,> 10 µM,416 nM,30.9 µM,–,2250 nM,15%,> 1000 nM,2.45 µM,–,–,–,–,–,24%,–,–,3520 nM
Cn1c(=O)c2c(nc3n2CCN(CCc2cccc(Br)c2)C3)n(C)c1=O,–,> 1500 nM,> 10 µM,29%,2120 nM,–,> 300 nM,3.65 µM,–,26%,42%,< 0.5 µg/mL,< 0.5 µg/mL,–,–,700 µg/mL,–

# Reference: ChEMBL document CHEMBL4428125, “8-Substituted 1,3-dimethyltetrahydropyrazino[2,1-f]purinediones: Water-soluble adenosine receptor antagonists and monoamine oxidase B inhibitors” (Bioorg Med Chem, 2016)
